Assay results published in US11331364B2, “Use for JNK inhibitor molecules for treatment of various diseases” (Xigen Inflammation Ltd., priority 2014, dated 2022).
Square brackets hold non-standard residues; d marks the D form. Peptide text beside a SMILES is read from it.

Experiments:
[1] = system: acute CYP-induced cystitis in female Sprague-Dawley rats; test: Cyclophosphamide-induced acute cystitis, intravesical treatment, visceral pain and bladder inflammation; format: in vivo, rat; conditions: 50 mg/mL, i.ves.; 24 h after CYP
Protocol: This preclinical model is well-used to test therapeutic approaches for the treatment of interstitial cystitis/painful bladder syndrome (IC/PBS).
Animals were acclimatized to the laboratory conditions for at least 3 days before the start of any experiments. The animals were allocated to the following four experimental groups (n=10 animals per group):
To induce acute cystitis, a single i.p. injection of CYP at a dose of 150 mg/kg in a final volume of 5 mL/kg was performed. Control rats received physiological saline under the same experimental conditions as CYP (final volume of 5 mL/kg, i.p.).
On the day of each experiment, weight of rats was recorded.
Standardized conditions including fixed time-of-day (a.m. to minimize the potential circadian variations in the behaviours responses) and single-experimenter testing of all animals were applied to minimize variability behavior-based pain testing. Visceral pain including allodynia and hyperalgesia was evaluated by applying to the lower abdomen, close to the urinary bladder, a set of 8 calibrated von Frey filaments of increasing forces (1, 2, 4, 6, 8, 10, 26 and 60 g) with an interstimulus interval of 5 seconds. Prior testing, the abdominal area designed for mechanical stimulation of each animal was shaved. Animals were then placed on a raised wire mesh floor under individual transparent Plexiglas box and acclimatized for at least 30 minutes before starting the von Frey test. Filaments were then applied 1-2 seconds through the mesh floor with enough strength to cause the filament to slightly bend. Each filament was tested 3 times. Care was taken to stimulate different areas within the lower abdominal region in the vicinity of the urinary bladder to avoid desensitization.
Nociceptive behaviors were scored for each animal and each filament as follows:
The study design is schematically shown in FIG. 50 A. Birefly, acute cystitis was induced by CYP injection (i.p.) at Do (as described above).
Urinary bladders were rapidly collected and cleaned from lipoid tissue. Urinary bladders were weighed, cut at the bladder neck as well as oedema and haemorrhage scoring was performed (see table below). Finally, wall thickness was measured using a digital caliper by placing the bladder wall between the two outside jaws.

[2] = system: PKR−/− neurons; test: Neuronal apoptosis after Aβ42 stress in PKR−/− primary cortical neurons; format: cell-based, mouse
Protocol: To obtain primary cortical neuronal cultures, E15.5 mice embryos were dissected in PBS (Phosphate Buffered Saline) 6% glucose, on ice. Embryos cortices were minced into small pieces and treated with PBS glucose trypsin (Sigma Aldrich, Saint-Louis, USA) for 20 min at 37° C. Dissociated cortical cells were cultured in Neurobasal media complemented with B27, Glutamax and penicillin-streptomycin (Gibco). Neurons were cultured at 37° C., 5% CO2 on pre-coated with poly-L-lysin (Sigma Aldrich) petri dishes. Neurons were cultured to maturity (7 days) before use.
To induce […] stress 2 μM of Aβ1-42 (Thermo Fisher Scientific, Mass., USA) were used during 5 h on cortical neurons. Aβ42-1 inversed peptide (Thermo Fisher Scientific) was used as negative control. AP 1-42 and Aβ42-1 were dissolved in pure water and incubated at 37° C. for 48 h before use.
To inhibit JNK, cortical neurons were pre-treated with 10 μM of XG-104 1 h before cell-stress treatment.
For immunoblot analysis cells were lysed on ice in a lysis buffer containing […] NaPi pH 7.8, […] NaCl, 1% Triton, 0.5% DOC, 0.1% SDS, 10% glycerol, 0.1 μM calyculin A, 1 mM Na3VO4 and 1× of a protease inhibitor cocktail (Sigma Aldrich). Lysates were sonicated and centrifugated 10 min at 15000 g at 4° C. The supernatant protein concentration was determined with the Micro BCA protein assay kit (Thermo Scientific). Thirty micrograms of proteins were resolved on SDS-PAGE and transferred onto nitrocellulose membrane. After blocking with TBS 5% skim milk, the membranes were probed with primary antibodies to JNK full, c-Jun, PKR, eIF2α (Santa Cruz, Danvers, USA), pJNK (Millipore, Billerica, USA), phosphor eIF2a (Thermo Fisher Scientific), PARP and tubulin (Cell Signaling, Danvers, USA). IR Dyes 800 and 700 (Rockland Immunochemical Inc, Gilbertsville, USA) antibodies were used as secondary antibodies. Blots were reveled with Odyssey imaging system (LI-COR Biosciences, Lincoln, USA).
For caspase 3 activity analysis culture cell supernatants containing degenerating and dead neurons, and cell medium were collected in parallel of adhesive neurons lysis. Culture cell supernatants were centrifugated 10 min at 15000 g at 4° C. Pellets were then resuspended in lysis buffer and caspase 3 activity was measured by using the Caspase 3 Assay kit reagents and protocol (Abcam, Cambridge, UK).

[3] = PKR−/− neurons, 10 μM, vs Aβ42 treated PKR−/− neurons
[4] = dual inhibition of PKR and JNK, vs treated WT neurons

CC(C)C[C@H](NC(=O)[C@H](CC(N)=O)NC(=O)[C@H](CC(C)C)NC(=O)[C@@H](NC(=O)[C@@H](C)NC(=O)[C@@H]1CCCN1C(=O)[C@H](CCCNC(=N)N)NC(=O)[C@@H](CCCCN)NC(=O)[C@@H]1CCCN1C(=O)[C@H](CCCNC(=N)N)NC(=O)[C@@H](CCCNC(=N)N)NC(=O)[C@H](CCCNC(=N)N)NC(=O)[C@H](CCCNC(=N)N)NC(=O)[C@H](CCC(N)=O)NC(=O)[C@@H](CCCNC(=N)N)NC(=O)[C@H](CCCNC(=N)N)NC(=O)[C@H](CCCCN)NC(=O)[C@H](CCCCN)NC(=O)[C@H](N)CCCNC(=N)N)[C@@H](C)O)C(=O)N[C@H](Cc1ccccc1)C(N)=O [SEQ ID NO: 172, rKKRrQRRrRPkRPaTLNLf] (H-[dR]KKR[dR]QRR[dR]RP[dK]RP[dA]TLNL[dF]-NH2; N-terminus assumed)
AUC 1-8 g (allodynia) vs vehicle [1]: significantly decreased
AUC 8-60 g (hyperalgesia) vs vehicle [1]: reduced
haemorrhage scores vs vehicle [1]: no significant change
nociceptive scores vs vehicle [1]: significantly decreased
nociceptive threshold vs vehicle [1]: significantly increased
oedema scores vs vehicle [1]: significant decrease
urinary bladder wall thickness vs vehicle [1]: significantly decreased
decrease of caspase 3 activity [2, 3]: 61%
decrease of cleaved PARP expression level [2, 3]: 86%
decrease of cleaved caspase 3 expression level [2, 3]: 42%
decrease of PARP expression levels [2, 4]: 93%
decrease of caspase 3 activity [2, 4]: 87%
decrease of cleaved caspase 3 [2, 4]: 83%
